Experimental data published in ChEMBL document CHEMBL3259515, “Further studies on ethyl 5-hydroxy-indole-3-carboxylate scaffold: design, synthesis and evaluation of 2-phenylthiomethyl-indole derivatives as efficient inhibitors of human 5-lipoxygenase” (Eur J Med Chem, 2014).
Active and inactive are the calls of the source. No cut-off for these calls is given here.

Tests used:
[1] = molecular target: T1, Polyunsaturated fatty acid 5-lipoxygenase (Homo sapiens, UniProt P09917); experiment: Inhibition of 5-LO in human polymorphonuclear leukocytes assessed as inhibition of LTB4 production from arachidonic acid preincubated for 15 mins by HPLC analysis; type: cell-based
T1 sequence (P09917 whole entry): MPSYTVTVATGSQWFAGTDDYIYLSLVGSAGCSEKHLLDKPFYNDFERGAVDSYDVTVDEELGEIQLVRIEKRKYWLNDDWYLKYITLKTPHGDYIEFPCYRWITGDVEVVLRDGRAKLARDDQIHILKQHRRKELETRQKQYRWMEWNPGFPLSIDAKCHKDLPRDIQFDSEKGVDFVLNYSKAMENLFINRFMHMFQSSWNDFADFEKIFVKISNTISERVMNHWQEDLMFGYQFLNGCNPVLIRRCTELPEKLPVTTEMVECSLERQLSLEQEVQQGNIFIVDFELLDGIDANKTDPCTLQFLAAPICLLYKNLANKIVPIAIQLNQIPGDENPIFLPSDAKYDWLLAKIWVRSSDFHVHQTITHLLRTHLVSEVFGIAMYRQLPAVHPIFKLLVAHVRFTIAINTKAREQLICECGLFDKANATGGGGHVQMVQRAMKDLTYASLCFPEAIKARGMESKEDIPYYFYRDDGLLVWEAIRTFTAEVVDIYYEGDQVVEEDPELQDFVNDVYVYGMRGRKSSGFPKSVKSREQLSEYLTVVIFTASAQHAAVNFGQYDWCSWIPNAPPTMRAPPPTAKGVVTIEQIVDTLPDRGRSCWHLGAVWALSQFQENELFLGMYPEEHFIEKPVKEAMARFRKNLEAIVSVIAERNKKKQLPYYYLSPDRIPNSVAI

[2] = molecular target: T1, Polyunsaturated fatty acid 5-lipoxygenase; experiment: Inhibition of human recombinant 5-LO expressed in Escherichia coli BL21 using arachidonic acid as substrate preincubated for 5 to 10 mins by HPLC analysis
[3] = molecular target: T2, Polyunsaturated fatty acid lipoxygenase ALOX12 (Homo sapiens) (UniProt P18054); experiment: Inhibition of 12-LO-mediated 12-H(P)ETE production in human polymorphonuclear leukocytes assessed as remaining activity preincubated at 10 uM for 15 mins by HPLC analysis; type: cell-based
T2 sequence (whole entry): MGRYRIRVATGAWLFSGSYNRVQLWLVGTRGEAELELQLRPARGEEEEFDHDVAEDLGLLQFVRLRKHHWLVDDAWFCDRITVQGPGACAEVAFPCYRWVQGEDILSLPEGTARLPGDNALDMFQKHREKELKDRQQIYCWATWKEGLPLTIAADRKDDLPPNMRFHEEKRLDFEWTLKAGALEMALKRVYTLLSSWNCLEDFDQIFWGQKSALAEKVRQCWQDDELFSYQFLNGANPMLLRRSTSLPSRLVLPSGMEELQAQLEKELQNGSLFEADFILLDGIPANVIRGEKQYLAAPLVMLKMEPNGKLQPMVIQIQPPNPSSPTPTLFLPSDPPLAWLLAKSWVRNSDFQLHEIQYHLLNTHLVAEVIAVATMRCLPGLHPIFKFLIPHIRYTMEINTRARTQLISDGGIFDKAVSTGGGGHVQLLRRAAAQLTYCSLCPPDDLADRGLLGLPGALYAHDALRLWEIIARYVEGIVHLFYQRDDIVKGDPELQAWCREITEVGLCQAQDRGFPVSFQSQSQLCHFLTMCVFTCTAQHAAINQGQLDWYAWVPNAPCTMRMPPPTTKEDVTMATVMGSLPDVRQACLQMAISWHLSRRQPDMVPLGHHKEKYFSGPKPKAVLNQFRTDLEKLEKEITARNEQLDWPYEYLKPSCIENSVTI

[4] = molecular target: T3, Polyunsaturated fatty acid lipoxygenase ALOX15 (Homo sapiens) (UniProt P16050); experiment: Inhibition of 15-LO-mediated 15-H(P)ETE production in human polymorphonuclear leukocytes assessed as remaining activity preincubated at 10 uM for 15 mins by HPLC analysis; type: cell-based
T3 sequence (whole entry): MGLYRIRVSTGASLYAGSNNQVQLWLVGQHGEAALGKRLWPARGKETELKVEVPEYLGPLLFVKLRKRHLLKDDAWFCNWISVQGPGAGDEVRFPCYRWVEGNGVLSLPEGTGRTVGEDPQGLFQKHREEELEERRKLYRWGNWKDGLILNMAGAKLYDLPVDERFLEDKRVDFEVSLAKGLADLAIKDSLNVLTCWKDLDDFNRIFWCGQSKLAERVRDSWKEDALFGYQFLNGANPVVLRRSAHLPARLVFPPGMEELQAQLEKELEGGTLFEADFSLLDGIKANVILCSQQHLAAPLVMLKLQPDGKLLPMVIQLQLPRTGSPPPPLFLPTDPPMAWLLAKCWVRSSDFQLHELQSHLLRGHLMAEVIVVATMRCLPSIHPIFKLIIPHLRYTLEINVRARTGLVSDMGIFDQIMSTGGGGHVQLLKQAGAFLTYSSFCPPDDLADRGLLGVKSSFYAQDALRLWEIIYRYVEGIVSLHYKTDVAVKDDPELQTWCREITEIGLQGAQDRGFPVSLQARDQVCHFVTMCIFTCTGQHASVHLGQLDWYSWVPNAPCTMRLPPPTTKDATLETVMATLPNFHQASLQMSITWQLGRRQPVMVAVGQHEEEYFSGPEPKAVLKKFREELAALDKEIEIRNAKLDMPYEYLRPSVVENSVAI

[5] = molecular target: T4, Prostaglandin G/H synthase 1 (Ovis aries) (UniProt P05979); experiment: Inhibition of purified ovine COX1 preincubated for 5 mins by HPLC analysis
T4 sequence (whole entry): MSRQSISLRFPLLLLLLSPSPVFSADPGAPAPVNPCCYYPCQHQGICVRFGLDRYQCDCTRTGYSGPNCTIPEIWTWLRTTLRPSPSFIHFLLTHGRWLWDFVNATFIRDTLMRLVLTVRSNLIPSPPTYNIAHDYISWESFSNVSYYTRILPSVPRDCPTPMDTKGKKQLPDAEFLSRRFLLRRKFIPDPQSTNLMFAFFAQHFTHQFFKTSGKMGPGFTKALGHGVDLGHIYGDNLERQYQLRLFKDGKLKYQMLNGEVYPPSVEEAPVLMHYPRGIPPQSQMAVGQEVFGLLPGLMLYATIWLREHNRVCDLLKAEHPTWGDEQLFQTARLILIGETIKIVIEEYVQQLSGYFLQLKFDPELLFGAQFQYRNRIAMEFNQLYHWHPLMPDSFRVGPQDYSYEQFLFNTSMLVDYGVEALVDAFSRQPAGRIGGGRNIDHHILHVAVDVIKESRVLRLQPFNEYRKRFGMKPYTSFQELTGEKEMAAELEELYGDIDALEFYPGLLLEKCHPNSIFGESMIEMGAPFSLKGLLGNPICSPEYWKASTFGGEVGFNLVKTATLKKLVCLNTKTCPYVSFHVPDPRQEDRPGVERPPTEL

[6] = molecular target: T5, Prostaglandin G/H synthase 2 (Homo sapiens) (UniProt P35354); experiment: Inhibition of human recombinant COX2 preincubated for 5 mins by HPLC analysis
T5 sequence (whole entry): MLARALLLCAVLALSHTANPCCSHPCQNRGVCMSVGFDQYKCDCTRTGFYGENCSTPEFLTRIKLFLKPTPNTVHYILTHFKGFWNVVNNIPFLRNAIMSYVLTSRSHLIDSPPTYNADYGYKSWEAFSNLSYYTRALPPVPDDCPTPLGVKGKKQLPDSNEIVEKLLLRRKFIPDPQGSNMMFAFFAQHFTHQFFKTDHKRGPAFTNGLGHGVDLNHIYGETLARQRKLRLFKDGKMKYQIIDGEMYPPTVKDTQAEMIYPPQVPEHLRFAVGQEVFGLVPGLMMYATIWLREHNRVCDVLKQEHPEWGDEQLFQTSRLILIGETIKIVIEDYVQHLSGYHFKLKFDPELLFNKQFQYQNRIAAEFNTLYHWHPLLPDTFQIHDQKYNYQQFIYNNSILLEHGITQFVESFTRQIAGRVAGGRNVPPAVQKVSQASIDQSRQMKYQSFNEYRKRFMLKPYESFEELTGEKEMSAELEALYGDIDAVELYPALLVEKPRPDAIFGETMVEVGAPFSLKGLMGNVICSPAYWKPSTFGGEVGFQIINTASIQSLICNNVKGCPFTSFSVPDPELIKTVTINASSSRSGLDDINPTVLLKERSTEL

[7] = molecular target: T6, Polyunsaturated fatty acid lipoxygenase ALOX15 (Homo sapiens, UniProt P16050); experiment: Inhibition of 15-LO in human polymorphonuclear leukocytes assessed as inhibition of 15-H(P)ETE production from arachidonic acid preincubated for 15 mins by HPLC analysis; type: cell-based
T6 sequence (P16050 whole entry): T3 sequence (whole entry)

Structure (SMILES)	IC50 [1]	IC50 [2]	Activity [3]	Activity [4]	inhibition [5]	inhibition [6]	IC50 [7]
CCOC(=O)c1c(CSc2ccccc2C(F)(F)F)n(C)c2ccc(O)cc12	1200 nM	800 nM	104%	126%			
CCOC(=O)c1c(CSc2c(Cl)cccc2Cl)n(C)c2ccc(O)cc12	900 nM	800 nM	103%	136%	inactive	inactive	
CCOC(=O)c1c(CSc2ccc(C(F)(F)F)cc2)n(C)c2ccc(O)cc12	> 10000 nM	4200 nM	102%	114%			
CCOC(=O)c1c(CSc2ccc(F)cc2)n(C)c2ccc(O)cc12	9100 nM	5000 nM	100%	120%			
CCOC(=O)c1c(CSc2cccc(Cl)c2)n(C)c2ccc(O)cc12	> 10000 nM	3800 nM	92.9%	114%			
CCOC(=O)c1c(CSc2c(C)cccc2C)n(C)c2ccc(O)cc12	1200 nM	800 nM	94.1%	125%			
CCOC(=O)c1c(CSc2ccccc2OC)n(C)c2ccc(O)cc12	5100 nM	2900 nM	108%	136%			
CCOC(=O)c1c(CSc2ccccc2)n(C)c2ccc(O)cc12	2400 nM	5700 nM	92.4%	130%			
CCOC(=O)c1c(CSc2c(C)cc(C)cc2C)n(C)c2ccc(O)cc12	230 nM	700 nM	86.5%	33%	inactive	inactive	8200 nM
CCOC(=O)c1c(CSc2ccc(OC(F)(F)F)cc2)n(C)c2ccc(O)cc12	2100 nM	900 nM	94.1%	107%			
CCOC(=O)c1c(CSc2cc(C)cc(C)c2)n(C)c2ccc(O)cc12	2700 nM	1800 nM	107%	150%			
N#C/C(=C\c1ccc(O)c(O)c1)C(=O)OC/C=C/c1ccccc1			5.6%	11.1%			
CCOC(=O)c1c(CSc2ccc(OC)cc2)n(C)c2ccc(O)cc12	3100 nM	2300 nM	92.1%	128%			
CCOC(=O)c1c(CSc2ccc(F)cc2F)n(C)c2ccc(O)cc12	6800 nM	3200 nM	91.4%	102%			
